Laboratory results: article PMC7317212 (Chemmedchem, 2020)

Experiments:
mGAT2 [1] = target: T1, mGAT2 (Mus musculus, UniProt P31651); conditions: cited from earlier work; for remaining [^3H]GABA uptake mGAT2: in presence of 100 μM compound
T1 construct: expressed in transfected cells; host or cells: HEK293
T1 sequence (P31651 1-614): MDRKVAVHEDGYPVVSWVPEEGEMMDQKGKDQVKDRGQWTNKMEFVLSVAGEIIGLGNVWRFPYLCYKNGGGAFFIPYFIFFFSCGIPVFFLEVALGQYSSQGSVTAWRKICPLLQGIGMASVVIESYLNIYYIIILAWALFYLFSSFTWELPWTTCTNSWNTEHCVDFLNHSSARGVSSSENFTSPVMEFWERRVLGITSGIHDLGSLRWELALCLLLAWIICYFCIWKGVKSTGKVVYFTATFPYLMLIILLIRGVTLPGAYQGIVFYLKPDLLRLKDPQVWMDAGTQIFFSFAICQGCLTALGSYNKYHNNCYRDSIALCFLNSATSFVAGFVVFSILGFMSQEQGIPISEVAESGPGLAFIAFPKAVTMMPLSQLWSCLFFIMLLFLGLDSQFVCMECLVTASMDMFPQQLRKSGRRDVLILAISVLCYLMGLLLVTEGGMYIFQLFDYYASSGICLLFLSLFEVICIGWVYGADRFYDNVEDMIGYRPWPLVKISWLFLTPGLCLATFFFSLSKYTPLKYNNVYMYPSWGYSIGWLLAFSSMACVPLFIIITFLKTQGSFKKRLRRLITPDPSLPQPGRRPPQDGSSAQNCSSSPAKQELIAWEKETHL

mGAT4 [2] = target: T2, mGAT4 (Mus musculus, UniProt P31650); assay: GABA uptake inhibition at mGAT4 with varied preincubation time; type: cell-based
T2 construct: expressed in transfected cells; host or cells: HEK293
T2 sequence (P31650 1-627): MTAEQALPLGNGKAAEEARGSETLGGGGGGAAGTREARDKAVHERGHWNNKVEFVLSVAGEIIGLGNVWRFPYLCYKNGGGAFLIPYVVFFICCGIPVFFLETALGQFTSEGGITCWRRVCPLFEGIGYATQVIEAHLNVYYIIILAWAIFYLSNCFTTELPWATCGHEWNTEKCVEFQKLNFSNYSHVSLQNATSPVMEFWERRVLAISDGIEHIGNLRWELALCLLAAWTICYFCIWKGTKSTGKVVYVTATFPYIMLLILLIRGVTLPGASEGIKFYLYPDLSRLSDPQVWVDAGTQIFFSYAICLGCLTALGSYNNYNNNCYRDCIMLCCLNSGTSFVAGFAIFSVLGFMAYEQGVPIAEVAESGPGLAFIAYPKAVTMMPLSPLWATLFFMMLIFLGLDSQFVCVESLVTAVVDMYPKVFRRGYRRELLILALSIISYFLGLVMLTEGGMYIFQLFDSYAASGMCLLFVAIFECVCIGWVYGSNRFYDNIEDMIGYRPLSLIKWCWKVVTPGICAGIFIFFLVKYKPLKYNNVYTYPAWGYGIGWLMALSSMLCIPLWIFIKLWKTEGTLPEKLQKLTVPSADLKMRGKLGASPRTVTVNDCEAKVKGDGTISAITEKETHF

mGAT4 [3] = target: T2, mGAT4; assay: [^3H]GABA uptake assay, HEK293 cells expressing mGAT4; type: cell-based; conditions: for remaining activity at 100 µM: HEK293, in presence of 100 μM compound; for IC50: [^3H]GABA uptake, pIC50±SEM
Summary of the method: (§1)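 HEK293 cells expressing mouse GATs preincubated 25 min at 37 °C with compound in Krebs buffer pH 7.2, then [3H]GABA added: 8 nM plus 32 nM unlabeled for 4 min (mGAT1/3/4), 20 nM plus 20 nM for 10 min (mGAT2). Filtration, scintillation counting; nonspecific uptake with 10 mM (mGAT1/3/4) or 100 mM GABA (mGAT2); pIC50.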

mGAT3 [4] = target: T3, mGAT3 (Mus musculus, UniProt P31649); assay: [^3H]GABA uptake assay, HEK293 cells expressing mGAT3; type: cell-based; conditions: for remaining activity at 100 µM: HEK293, in presence of 100 μM compound; for IC50: [^3H]GABA uptake, pIC50±SEM
T3 construct: expressed in transfected cells; host or cells: HEK293
T3 sequence (P31649 1-602): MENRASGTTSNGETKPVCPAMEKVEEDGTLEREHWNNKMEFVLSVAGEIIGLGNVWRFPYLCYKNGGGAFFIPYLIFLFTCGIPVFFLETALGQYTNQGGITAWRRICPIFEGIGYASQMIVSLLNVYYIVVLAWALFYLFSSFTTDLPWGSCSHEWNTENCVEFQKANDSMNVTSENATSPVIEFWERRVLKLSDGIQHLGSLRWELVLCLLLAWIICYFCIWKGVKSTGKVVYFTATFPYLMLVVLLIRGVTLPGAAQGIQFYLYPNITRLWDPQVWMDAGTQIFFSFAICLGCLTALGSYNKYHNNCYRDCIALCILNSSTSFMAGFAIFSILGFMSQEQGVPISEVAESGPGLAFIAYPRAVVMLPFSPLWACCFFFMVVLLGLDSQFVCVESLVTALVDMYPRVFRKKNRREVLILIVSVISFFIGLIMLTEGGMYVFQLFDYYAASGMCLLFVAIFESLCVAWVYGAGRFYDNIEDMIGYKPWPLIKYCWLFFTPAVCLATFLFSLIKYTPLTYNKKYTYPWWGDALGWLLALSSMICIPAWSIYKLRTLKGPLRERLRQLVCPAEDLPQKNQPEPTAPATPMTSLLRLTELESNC
Summary of the method: as §1

mGAT1 [5] = target: T4, mGAT1 (Mus musculus, UniProt P31648); assay: MS Binding Assay with NO711 as native MS marker; conditions: for remaining activity at 100 µM: in presence of 100 μM compound, read-out: remaining specific NO711 binding (mGAT1)
T4 construct: expressed in transfected cells; host or cells: HEK293
Summary of the method: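 Competitive MS binding using membranes from HEK293 cells stably expressing mGAT1, with 10 nM unlabeled NO711 as marker and compounds at 7 concentrations. Nonspecific binding defined with 100 mM GABA. Bound NO711 eluted after filtration and quantified by LC-ESI-MS/MS against [2H10]NO711; Ki derived.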

mGAT2 [6] = target: T1, mGAT2; assay: [^3H]GABA uptake assay, HEK293 cells expressing mGAT2; type: cell-based; conditions: for remaining activity at 100 µM: HEK293, in presence of 100 μM compound
Summary of the method: as §1

mGAT1 [7] = target: T4, mGAT1; assay: [^3H]GABA uptake assay, HEK293 cells expressing mGAT1; type: cell-based; conditions: for remaining activity at 100 µM: HEK293, in presence of 100 μM compound; for IC50: [^3H]GABA uptake, pIC50±SEM
Summary of the method: as §1

mGAT3 [8] = target: T3, mGAT3; conditions: cited from earlier work
mGAT4 [9] = target: T2, mGAT4; conditions: in presence of 100 μM compound; cited from earlier work

Row | Structure (SMILES) | remaining activity at 100 µM (mGAT4 [3]) | IC50 (mGAT4 [3]) | remaining activity at 100 µM (mGAT3 [4]) | remaining activity at 100 µM (mGAT1 [5]) | remaining activity at 100 µM (mGAT2 [6]) | remaining activity at 100 µM (mGAT1 [7]) | IC50 (mGAT3 [4]) | further results
1 | COc1ccc(C(OCCN2CCC[C@H](C(=O)O)C2)(c2ccc(OC)cc2)c2ccc(OC)cc2)cc1 [(S)‐SNAP‐5114, reference compound] |  |  |  |  |  |  |  | remaining [^3H]GABA uptake mGAT2 (mGAT2 [1]): 56%; Normalized pIC50 mGAT4 (mGAT4 [2]; preincubation time 10 min, experiments 1-3, relative to 25 min = 100.00): 97.20; Normalized pIC50 mGAT4 (mGAT4 [2]; preincubation time 25 min, experiments 1-3 (reference)): 100.00; Normalized pIC50 mGAT4 (mGAT4 [2]; preincubation time 25 min, experiments 4-6 (reference)): 100.00; Normalized pIC50 mGAT4 (mGAT4 [2]; preincubation time 60 min, experiments 1-3, relative to 25 min = 100.00): 101.23; Normalized pIC50 mGAT4 (mGAT4 [2]; preincubation time 60 min, experiments 4-6, relative to 25 min = 100.00): 103.79
2 | COc1ccc(C(OCCN2CCCC(C(=O)O)C2)(c2ccc(OC)cc2)c2ccc(C(N)=O)cc2)cc1 (racemic) [5 j, rac ‐1‐{2‐[(4‐Carbamoylphenyl)bis(4‐methoxyphenyl)methoxy]ethyl}‐piperidine‐3‐carboxylic acid] | 65.2% | > 100 µM | 82.1% | 87% | 96.1% | 79.6% |  | 
3 | CCOC(=O)C1CCCN(CCOC(c2ccc(CNc3ccc(C(=O)O)cc3)cc2)(c2ccc(OC)cc2)c2ccc(OC)cc2)C1 (racemic) [12 t, rac‐ 4‐{[4‐({2‐[3‐(Ethoxycarbonyl)piperidin‐1‐yl]ethoxy}bis{4‐methoxy‐phenyl}methyl)benzyl]amino}benzoic acid] | 63.9% |  | 49.7% | 102% | 73.5% | 52.3% |  | 
4 | COc1ccc(C(OCCN2CCC[C@@H](C(=O)O)C2)(c2ccc(C=O)cc2)c2ccc(OC)cc2)cc1 [(R)‐5 a] |  | 13.8 µM |  |  | 50.1% |  | 33.9 µM | Ki (mGAT1 [5]; MS Binding Assay, NO711 marker, pKi±SEM, read-out: pK i mGAT1 (converted)): 12.3 µM; IC50 (mGAT1 [7]): 35.5 µM
5 | CCOC(=O)C1CCCN(CCOC(c2ccc(COC)cc2)(c2ccc(COC)cc2)c2ccc(COC)cc2)C1 (racemic) [12 i, rac‐ Ethyl 1‐(2‐{tris[4‐(methoxymethyl)phenyl]methoxy}ethyl)piperidine‐3‐carboxylate] | 51.4% |  |  | 87.5% | 65% | 70.3% | 95.5 µM | 
6 | CCOC(=O)C1CCCN(CCOC(c2ccc(CNC(C)(C)C(=O)OCC)cc2)(c2ccc(OC)cc2)c2ccc(OC)cc2)C1 (racemic) [12 q, rac‐ Ethyl 1‐{2‐[(4‐{[(1‐ethoxy‐2‐methyl‐1‐oxopropan‐2‐yl)amino]methyl}‐phenyl)bis(4‐methoxyphenyl)methoxy]ethyl}piperidine‐3‐carboxylate] | 57.4% |  | 49.3% | 90.9% | 67.4% | 66.9% |  | 
7 | COc1ccc(C(OCCN2CCC[C@H](C(=O)O)C2)(c2ccc(OC)cc2)c2ccc(OC)cc2C)cc1 [DDPM‐859] |  |  |  |  |  |  |  | pIC50 mGAT2 (mGAT2 [1]; [^3H]GABA uptake, pIC50±SEM): 4.12±0.08; pIC50 mGAT3 (mGAT3 [8]; [^3H]GABA uptake, pIC50±SEM): 4.85±0.04
8 | COc1ccc(C(OCCN2CCC[C@H](C(=O)O)C2)(c2ccc(C=O)cc2)c2ccc(OC)cc2)cc1 [(S)‐5 a, (S)‐1‐{2‐[(4‐Formylphenyl)bis(4‐methoxyphenyl)methoxy]ethyl}piper‐idine‐3‐carboxylic acid] |  | 1.29 µM |  | 77.4% | 72.6% |  | 6.92 µM | IC50 (mGAT1 [7]): 72.4 µM
9 | CCOC(=O)C1CCCN(CCOC(c2ccc(C=O)cc2)(c2ccc(OC)cc2)c2ccc(OC)cc2)C1 (racemic) [12 a, rac‐ Ethyl 1‐{2‐[(4‐formylphenyl)bis(4‐methoxyphenyl)methoxy]ethyl}‐piperidine‐3‐carboxylate] | 55.9% |  |  | 85.4% |  | 55.5% | 12.6 µM | IC50 (mGAT2 [6]; [^3H]GABA uptake, pIC50±SEM): 26.9 µM
10 | CCOC(=O)C1CCCN(CCOC(c2ccc(CNCCCC(=O)O)cc2)(c2ccc(OC)cc2)c2ccc(OC)cc2)C1 (racemic) [12 s, rac ‐4‐{[4‐({2‐[3‐(Ethoxycarbonyl)piperidin‐1‐yl]ethoxy}bis{4‐methoxy‐phenyl}methyl)benzyl]amino}butanoic acid] | 67.6% |  | 59.3% | 84.9% | 76.7% | 52.4% |  | 
11 | CCOC(=O)C1CCCN(CCOC(c2ccc(CO)cc2)(c2ccc(OC)cc2)c2ccc(OC)cc2)C1 (racemic) [12 m, rac ‐Ethyl 1‐(2‐{[4‐(hydroxymethyl)phenyl]bis[4‐methoxyphenyl]methoxy}‐ethyl)piperidine‐3‐carboxylate] |  | 58.9 µM |  | 75.3% | 49.3% | 50.4% | 35.5 µM | 
12 | Cc1ccsc1C(=CCCN1CCC[C@@H](C(=O)O)C1)c1sccc1C [Tiagabine] |  |  |  |  |  |  |  | remaining [^3H]GABA uptake mGAT2 (mGAT2 [1]): 50%; remaining [^3H]GABA uptake mGAT3 (mGAT3 [8]; in presence of 100 μM compound): 64%; remaining [^3H]GABA uptake mGAT4 (mGAT4 [9]): 73%
